In patent EP4772500A1, “NOVEL ISOXAZOLE COMPOUND AS TM4SF5-SPECIFIC INHIBITOR AND USE THEREOF” (Seoul National University R&DB Foundation, priority 2023, dated 2025):

Tested on: SNU449T7 cells
Experiment: Subcutaneous xenograft liver cancer model in severely combined immunodeficient animals
Type: in vivo, NOD-SCID mice
Procedure: Cells expressing TM4SF5 (SNU449T7) were cultured in a cell incubator at 37°C and 5% CO2. The next day, the cells were detached by treating with a T/E (Trypsin/EDTA) solution and centrifuged at 150 × g for 3 minutes to obtain a cell pellet. Thereafter, the supernatant was removed, and the pellet was prepared by resuspension in phosphate buffered saline (PBS). For the generation of cancer tissue, 5 × 10^5 cells/100 µl were injected once subcutaneously into the right thigh area of 6-week-old male NOD/SCID mice. At this time, the animals were anesthetized by inhalation with […] isoflurane and injected. From the 15th day after the cell injection, drug ST-5-002 was intraperitoneally injected at 2.5 mg/kg of body weight at 100 µl per dose for a total of 8 times every 3 days. The body weight and tumor volume of the animals were measured every 3 days from the 12th day after the cell injection. The tumor volume was calculated as (length × width × width)/2 (mm^3) by measuring the length and width of the tumor. On the 36th day after the cell (SNU449T7) injection, the animals were sacrificed, and cancer tissues were obtained and analyzed.
SNU449T7 cells were subcutaneously injected into the thighs of 6-week-old male NOD/CB17-Prkdc^scid/J mice (NOD-SCID mice lacking or having non-functional immune cells such as T cells, B cells, and NK cells, n=10), at a dose of 5X10^5 cells. One week later, vehicle or the drug ST-5-002 was intravenously injected at a concentration of 2.5 mg/kg of body weight (mpk) twice a week. Three days after the 8th drug injection, the animals were sacrificed, cancer tissues were recovered and photographed, and immunohistochemistry, Western blot, and qRT-PCR analyses were performed.

Cc1ccc(C(=O)Nc2ccc(-c3cc(-c4ccc(O)cc4)no3)cc2)cc1 [ST-5-002, N-(4-(3-(4-hydroxyphenyl)isoxazole-5-yl)phenyl)-4-methylbenzamide]
inhibitory efficacy in cancer formation in terms of tumor volume and weight (2.5 mg/kg of body weight (mpk), 8 injections (FIG. 24c)): statistically significant inhibitory efficacy
tumor size (2.5 mg/kg of body weight (mpk), 8 injections, vs vehicle (FIG. 24b)): decreased
SLAMF7 staining in the small cancer areas (immunostaining (FIG. 24d)): much more distinctly strong staining level
degree of PD-L1 staining (immunostaining (FIG. 24d)): decreased
expression of TM4SF5 (immunostaining (FIG. 24d)): did not change significantly
expressions of AFP and laminin γ2 (immunostaining (FIG. 24d)): significantly reduced
staining level of F4/80 and expressions of CCL5 and CCL20 (immunostaining, vs control group (FIG. 24d)): lower
